The values below come from paper PMC7243081 (Slas Discovery, 2019).

Read-outs that look alike come from different tables or passages of the source.

The subject of assay [1] is Wild-type HEK cells. The following applies: patch clamp; cited from earlier work. A general note: In patch-clamp work, channel activity is measured electrically.
For assay [2], the target named is GABAA receptor. The following applies: cited from earlier work; for IC50: read-out: reported IC50.
The target of assay [3] is T1, α1, β2, and γ2s subunits of the rat GABAA receptors (HEK-GABA cells) (Rattus norvegicus, UniProt P18508+P62813+P63138). As to the kind of experiment: Whole-cell electrophysiology recording on HEK-GABA cells. The format is cell-based. The settings on record: electrophysiology vs QP-DHM.
T1 sequence (P62813 28-455): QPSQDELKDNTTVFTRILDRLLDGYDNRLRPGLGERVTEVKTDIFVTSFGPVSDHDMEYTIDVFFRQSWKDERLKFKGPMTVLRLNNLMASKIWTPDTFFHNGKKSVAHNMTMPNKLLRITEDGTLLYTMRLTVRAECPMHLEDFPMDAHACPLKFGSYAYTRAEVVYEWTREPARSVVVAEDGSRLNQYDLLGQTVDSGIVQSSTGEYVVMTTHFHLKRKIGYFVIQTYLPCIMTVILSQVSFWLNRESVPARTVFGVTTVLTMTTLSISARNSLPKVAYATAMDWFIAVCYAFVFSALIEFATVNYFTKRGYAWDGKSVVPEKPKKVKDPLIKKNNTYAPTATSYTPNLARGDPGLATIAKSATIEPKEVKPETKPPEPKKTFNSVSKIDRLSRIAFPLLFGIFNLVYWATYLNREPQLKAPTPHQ
T1 sequence (P63138 25-474 limits assumed): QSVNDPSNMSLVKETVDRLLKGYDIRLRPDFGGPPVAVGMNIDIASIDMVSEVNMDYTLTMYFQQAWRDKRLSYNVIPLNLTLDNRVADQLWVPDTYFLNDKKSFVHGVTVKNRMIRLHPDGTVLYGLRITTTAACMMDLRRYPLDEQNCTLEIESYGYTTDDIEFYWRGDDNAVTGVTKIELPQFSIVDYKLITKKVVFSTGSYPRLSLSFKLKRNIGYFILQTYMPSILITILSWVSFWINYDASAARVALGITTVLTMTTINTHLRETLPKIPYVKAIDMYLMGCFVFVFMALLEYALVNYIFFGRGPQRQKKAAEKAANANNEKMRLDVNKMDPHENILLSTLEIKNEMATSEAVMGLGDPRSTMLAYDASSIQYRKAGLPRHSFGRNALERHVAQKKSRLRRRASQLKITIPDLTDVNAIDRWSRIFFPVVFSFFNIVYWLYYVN
T1 sequence (P18508 39-466): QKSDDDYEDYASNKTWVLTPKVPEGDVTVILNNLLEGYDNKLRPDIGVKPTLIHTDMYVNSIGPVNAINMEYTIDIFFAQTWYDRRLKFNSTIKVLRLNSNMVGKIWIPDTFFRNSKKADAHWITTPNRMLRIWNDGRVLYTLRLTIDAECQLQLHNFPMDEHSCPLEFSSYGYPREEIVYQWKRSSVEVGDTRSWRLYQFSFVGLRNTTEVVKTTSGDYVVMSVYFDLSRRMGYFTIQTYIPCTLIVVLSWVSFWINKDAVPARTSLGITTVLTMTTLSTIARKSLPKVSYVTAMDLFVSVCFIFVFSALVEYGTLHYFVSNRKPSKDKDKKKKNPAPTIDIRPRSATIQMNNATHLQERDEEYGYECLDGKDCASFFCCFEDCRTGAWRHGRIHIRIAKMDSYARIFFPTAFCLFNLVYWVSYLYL
Assay [4] has as its target T1, α1, β2, and γ2s subunits of the rat GABAA receptors (HEK-GABA cells). As to the kind of experiment: QP-DHM blind agonist screen. The format is cell-based.
The subject of assay [5] is human α1β2γ2L GABAA receptor subunits in L(tk−) cells. The following applies: L(tk−) cells stably transfected with human α1β2γ2L; cited from earlier work.
The target of assay [6] is T1, α1, β2, and γ2s subunits of the rat GABAA receptors (HEK-GABA cells). Kind of assay: QP-DHM modulator mode. The assay is classed as cell-based. The settings on record: maximum concentration of compound, with GABA at EC30, Fig. 3D.
The subject of assay [7] is α1β2γ2 expressed in Xenopus oocytes. The following applies: read-out: EC50 as modulator; cited from earlier work.
In assay [8] the target is GABAA receptor (α1, β2, and γ2s subunits, HEK-GABA) (Rattus norvegicus, UniProt P18508+P62813+P63138). The format is cell-based.
GABAA receptor (α1, β2, and γ2s subunits, HEK-GABA), sequence (P62813 28-455): as the sequence (P62813 28-455) above
GABAA receptor (α1, β2, and γ2s subunits, HEK-GABA), sequence (P63138 25-474 limits assumed): as the sequence (P63138 25-474 limits assumed) above
GABAA receptor (α1, β2, and γ2s subunits, HEK-GABA), sequence (P18508 39-466): as the sequence (P18508 39-466) above
Where [9] appears, read: Table 1, dose-response curves of validated hits.

On to `NCCCC(=O)O` [GABA], for which the “electrophysiological response of wild-type HEK cells” value in assay [1] was “no electrophysiological response”.

On to `COc1ccc(-c2ccc(=N)n(CCCC(=O)O)n2)cc1` [Gabazine], for which the IC50 in assay [2] (in the presence of 3 μM GABA) is approximately 200 nM.

Turning to `CC[C@H](C)[C@H]1O[C@]2(C=C[C@@H]1C)C[C@@H]1C[C@@H](C/C=C(\C)[C@@H](O[C@H]3C[C@H](OC)[C@@H](O[C@H]4C[C@H](OC)[C@@H](O)[C@H](C)O4)[C@H](C)O3)[C@@H](C)/C=C/C=C3\CO[C@@H]4[C@H](O)C(C)=C[C@@H](C(=O)O1)[C@]34O)O2` [Avermectin B1a], the “EC50 with electrophysiology relative to QP-DHM (fold higher)” value in assay [3] was ~ 10 ×. In assay [4], this molecule yielded a concentration for a half-maximal effect (EC50) of 6900 nM. Moreover, in assay [4] (setting [9]), the “Amplitude (%)” value is listed as 94% and the “Hill Coefficient” value was determined as 6.3. In addition, in assay [4] (Table 2, avermectin family), the “Amplitude (%)” value is recorded as 94% and the “Hill Coefficient” value is recorded as 6.3.

Turning to `CN1CCc2cc3c(cc2[C@H]1[C@@H]1OC(=O)c2c1ccc1c2OCO1)OCO3` [(+)-Bicuculline], the values for the IC50 in assay [2] (in the presence of 3 μM GABA) and in assay [2] (in the presence of 10 μM GABA) were 900 nM and 530 nM, respectively.

Regarding Picrotoxin, the IC50 in assay [2] (in the presence of 10 μM GABA) was 3100 nM.

With Ivermectin, in assay [3], the “EC50 with electrophysiology relative to QP-DHM (fold higher)” value is on record as ~ 10 ×. In addition, the “rise time relative to GABA (times longer)” value in assay [2] is reported as “about 500 times”.

Take `COc1cc2c(c(OC)c1OC)-c1ccc(OC)c(=O)cc1[C@@H](NC(C)=O)CC2` [Colchicine]: the “effect on GABA currents” value in assay [5] is on record as “significantly inhibits GABA currents”.

`NCc1cc(=O)[nH]o1` [Muscimol]: the midpoint of the response in assay [4], the EC50, lay at 200 nM. Further, in assay [4] (setting [9]), the “Amplitude (%)” value is 100% and the “Hill Coefficient” value was determined as 1.9.

Regarding `CCN(C(C)=O)c1cccc(-c2ccnc3c(C#N)cnn23)c1` [Zaleplon], the “effect of GABA increased to % of the maximum (GABA at 10 µM)” value in assay [6] came to 41%. The EC50 in assay [7] was 170 nM.

Consider `CC(=O)OC1CCC2(C)C(CCC3C4CCC(C(C)=O)C4(C)CC(=O)C32)C1` (stereo not drawn), for which the “result in blind agonist screen” value in assay [4] (natural products collection) is “negative”.

As to `CC[C@]1(O)C[C@@H]2CN(CCc3c([nH]c4ccccc34)[C@@](C(=O)OC)(c3cc4c(cc3OC)N(C)[C@H]3[C@@](O)(C(N)=O)[C@H](O)[C@]5(CC)C=CCN6CC[C@]43[C@@H]65)C2)C1` [STOCK1N-75293, Vindesine], the “outcome of hits validation (activity and specificity for the GABAA receptor)” value in assay [8] is recorded as “marginal effect”.

For orientation: IC50 means the concentration that gives 50% inhibition. Broadly, the EC50 is the concentration needed to bring the measured effect to its halfway point.
